For this assay, the target named is Dual specificity tyrosine-phosphorylation-regulated kinase 1A (Homo sapiens, UniProt Q13627). The experiment in a line: DYRK1A Inhibition Assay. As for the experimental part: 1. Add 5 μL enzyme & substrate mixture to each well in Column 2-23 and A24-H24 wells of the 384-well assay plate;2. Add 5 μL 0% Phosphorylation control to A1-H1 and I24-P24 wells of the assay plate;3. Add 5 μL 100% Phosphorylation control to I1-P1 wells of the assay plate;4. Spin the assay plate (1000 rpm, 1 minute @23° C.);5. Incubate enzyme with compounds for 15 minutes at 23° C.;6. Add 5 μL ATP solution to each well of the assay plate;7. Spin the plate (1000 rpm, 1 minute @23° C.);8. Incubate the assay plate for 90 minutes at 23° C.;9. Add 10 μL Development reagent A to each well of the assay plate;10. Centrifuge the plate at 1000 rpm about 15 seconds and seal a film over assay plate. Incubate the assay plate for 30 minutes at 23° C.11. Read assay plates on Envision (see Tables A, B, and C).Final Compound ConcentrationsAssay buffer: 50 mM Hepes pH7.5, 10 mM MgCl2, 1 mM EDTA, 0.01% Brij-35DYRK1A: 1 nMATP: 20 μMSer/Thr 18 peptide: 2 μMReaction time: 90 minutes.

As a reminder, the IC50 is the concentration that inhibits the measured activity by half. Read a low IC50 as higher potency. Compound `N#Cc1cccc(Oc2cncc3ccc(-c4cnc5ccccn45)cc23)c1` [US20250066318, Compound I.6] returned an IC50 of 550 nM.
In turn, `Cc1c(F)ncc2ccc(-c3cnn(C)c3)cc12` [US20250066318, Compound I.64] showed an IC50 of 55 nM.
For the compound `O=C(O)[C@H]1C[C@H](Nc2c(-c3cncs3)ccc3cnccc23)C1` [US20250066318, Compound I.67], the IC50 was over 1000 nM.
`O=C(O)[C@H]1C[C@@H](Nc2c(-c3cncs3)ccc3cnccc23)C1` [US20250066318, Compound I.68] displayed an IC50 of 550 nM.
The compound `O=C(O)[C@H]1C[C@@H](Oc2c(-c3cncs3)ccc3cnccc23)C1` [US20250066318, Compound I.69] returned an IC50 of 550 nM.
For `O=C(O)[C@H]1C[C@H](Oc2c(-c3cncs3)ccc3cnccc23)C1` [US20250066318, Compound I.70], the IC50 stood at 550 nM.
In turn, `O=C(O)[C@H]1C[C@@H](Nc2ncc(-c3ccc4cnccc4c3)s2)C1` [US20250066318, Compound I.71] yielded an IC50 of 55 nM.
In turn, `O=C(O)C1CN(c2cn3ncc(-c4ccc5cnccc5c4)c3cn2)C1` [US20250066318, Compound I.73] yielded an IC50 of under 10 nM.
Take `O=C(O)C1CC(Nc2cc3cc(-c4cncs4)ccc3cn2)C1` (stereo not drawn) [US20250066318, Compound I.74]: it took 55 nM to reach half-maximal inhibition (IC50).
For `Cc1ncc2ccc(-c3cncs3)cc2c1OC1CNC1` [US20250066318, Compound I.75], the IC50 came to 55 nM.
As for `Cc1ncc2ccc(-c3cncs3)cc2c1OC1CN(C)C1` [US20250066318, Compound I.76], the figure is 550 nM; as for `Cc1ncc2ccc(-c3cnn(C)c3)cc2c1OC1CNC1` [US20250066318, Compound I.77], 55 nM.
In turn, `Cc1ncc2ccc(-c3cnn(C)c3)cc2c1OC1CN(C)C1` [US20250066318, Compound I.78] showed an IC50 of 55 nM.
The compound `Cc1ncc2ccc(-c3cncs3)cc2c1O[C@H]1C[C@@H](O)C1` [US20250066318, Compound I.79] returned an IC50 of under 10 nM.
`Cc1ncc2ccc(-c3cncs3)cc2c1O[C@H]1C[C@H](O)C1` [US20250066318, Compound I.80] had an IC50 of under 10 nM.
In the case of `Cc1ncc2ccc(-c3cnn(C)c3)cc2c1O[C@H]1C[C@@H](O)C1` [US20250066318, Compound I.81], the IC50 was under 10 nM.
`Cc1ncc2ccc(-c3cnn(C)c3)cc2c1O[C@H]1C[C@H](O)C1` [US20250066318, Compound I.82] gave an IC50 of under 10 nM.
The compound `Cn1cc(-c2ccc3cnc(NC(=O)OC4(C)CC4)cc3c2)cn1` [US20250066318, Compound I.83] came in with an IC50 of under 10 nM.
Compound `CS(=O)(=O)N1CCC(Oc2cncc3ccc(-c4cnn5cc(C(F)(F)F)ccc45)cc23)CC1` [US20250066318, Compound I.85] gave an IC50 of under 10 nM.
For `CC(=O)N1CCC(Oc2cncc3ccc(-c4cnn5cc(C(F)(F)F)ccc45)cc23)CC1` [US20250066318, Compound I.86], the IC50 is under 10 nM.
Turning to `O=C(O)C1CCN(Cc2cncc3ccc(-c4cnn5cc(C(F)(F)F)ccc45)cc23)CC1` [US20250066318, Compound I.88], the IC50 came out at 550 nM.
As for `CC(=O)N1CCN(Cc2cncc3ccc(-c4cnn5cc(C(F)(F)F)ccc45)cc23)CC1` [US20250066318, Compound I.89], the figure is 55 nM; as for `Cn1cc(C#Cc2ncc(-c3ccc4cnccc4c3)s2)ccc1=O` [US20250066318, Compound I.92], under 10 nM; as for `COc1cncc2ccc(-c3cnn4cc(-c5ccc(=O)n(C)c5)cnc34)cc12` [US20250066318, Compound I.93], under 10 nM.
On to `N#Cc1cncc2ccc(-c3cnc(C#CC4CCOCC4)s3)cc12` [US20250066318, Compound I.94], for which the IC50 worked out at 550 nM.
Compound `C(#CC1CCOCC1)c1ncc(-c2ccc3cncc(OC4CCNCC4)c3c2)s1` [US20250066318, Compound I.95] came in with an IC50 of under 10 nM.
Turning to `CC(=O)N1CCC(Oc2cncc3ccc(-c4cnc(C#CC5CCOCC5)s4)cc23)CC1` [US20250066318, Compound I.96], the IC50 is under 10 nM.
The value for `CN1CCC(Oc2cncc3ccc(-c4cnc(C#CC5CCOCC5)s4)cc23)CC1` [US20250066318, Compound I.97] was under 10 nM.
As for `C(#CC1CCOCC1)c1ncc(-c2ccc3cnc(OC4CCNCC4)cc3c2)s1` [US20250066318, Compound I.98], inhibition was half-maximal at 550 nM (IC50).
The value for `CC(=O)N1CCC(Oc2cc3cc(-c4cnc(C#CC5CCOCC5)s4)ccc3cn2)CC1` [US20250066318, Compound I.99] was over 1000 nM.
Turning to `CN1CCC(Oc2cc3cc(-c4cnc(C#CC5CCOCC5)s4)ccc3cn2)CC1` [US20250066318, Compound I.100], the IC50 was found to be 550 nM.
In turn, `CC(=O)N1CCN(Cc2cc3cc(-c4cnc(C#CC5CCOCC5)s4)ccc3cn2)CC1` [US20250066318, Compound I.101] came in with an IC50 of over 1000 nM.
As for `CN(C)[C@H]1CC[C@H](Oc2cc3cc(-c4cnc(C#CC5CCOCC5)s4)ccc3cn2)CC1` [US20250066318, Compound I.102], the figure is over 1000 nM; as for `CN(C)[C@H]1CC[C@@H](Oc2cc3cc(-c4cnc(C#CC5CCOCC5)s4)ccc3cn2)CC1` [US20250066318, Compound I.103], over 1000 nM; as for `CC(C)CN1CCC(C#Cc2ncc(-c3ccc4cnc(Cl)cc4c3)s2)CC1` [US20250066318, Compound I.104], 55 nM.
Take `CC(C)CN1CCC(C(=O)Nc2ncc(-c3ccc4cnc(C5CC5)cc4c3)s2)CC1` [US20250066318, Compound I.105]: the IC50 stood at 55 nM.
`Cn1cc(-c2ccc3cnc(C#CC4CCNCC4)cc3c2)cn1` [US20250066318, Compound I.106] yielded an IC50 of 55 nM.
Take `CN1CCC(C#Cc2cc3cc(-c4cnn(C)c4)ccc3cn2)CC1` [US20250066318, Compound I.107]: inhibition was half-maximal at 55 nM (IC50).
Consider `Cn1cc(-c2ccc3cnc(C#CC4CCOCC4)cc3c2)cn1` [US20250066318, Compound I.108], for which the IC50 was found to be 55 nM.
With `CN1CCc2c(c(-c3cnc4c(-c5ccc(C#N)cc5)cnn4c3)cn(C)c2=O)C1` [US20250066318, Compound II.43], the IC50 was over 1000 nM.
For the compound `Cn1c(C2CCNCC2)cn2ncc(-c3ccc(C#N)cc3)c2c1=O` [US20250066318, Compound II.44], the IC50 is 625 nM.
Compound `CN1CCC(c2cn3ncc(-c4ccc(C#N)cc4)c3c(=O)n2C)CC1` [US20250066318, Compound II.45] gave an IC50 of 625 nM.
As for `CN1CC=C(c2cn3ncc(-c4ccc(C#N)cc4)c3c(=O)[nH]2)CC1` [US20250066318, Compound II.46], the figure is 175 nM.

The values above are taken from BindingDB's records for patent US20250066318 (Prothena Biosciences, 2025).
